This is an account of results in US9155289B2, “Methods concerning PPAR delta and antagonists thereof” (University Court of the University of Dundee, priority 2008, dated 2015).

The test system of one series is PPARδ transgenic mice. Kind of series: Skin phenotype in PPARδ transgenic mice after PPARδ activation. It is filed as in vivo, mouse. How it is done: FIG. 5. Skin phenotype in PPARδ transgenic mice twenty days after beginning of GW501516 (GW) administration. (FIGS. 5a-5c) Gross morphology, (FIGS. 5d-5e) H&E histology of control mice not treated with GW (5d), or fourteen days after induction (5e-5g). Magnification 200× (5d,5e) or 400× (5f). (5g) Immunostaining for Ki67 of skin from PPARδ transgenic mice maintained in the absence (left) or presence (right) of GW. Magnification 200×. (5h) Induction of skin disease by topical application of either 0.3% of indole-3-carbinole (I3C, left) or I3C plus 0.3% GW501516 once daily to shaved abdominal skin. Gross macroscopic phenotype (top) and H&E histology of treated skin (bottom) was documented 10 days after beginning of treatment; and
Mice were generated which are inducible to overexpress human PPARδ in the skin and a wide range of other tissues and organs, including the spleen, under the control of the CYP1A1 promoter. The CYP1A1 dioxin-responsive promoter was initially chosen because it is known to be transactivated by the aryl hydrocarbon receptor (AHR) upon binding of specific AHR agonist ligands. (Campbell et al., Regulation of the CYP1A1 promoter in transgenic mice: an exquisitely sensitive on-off system for cell specific gene regulation, J. Cell Science, 1996, 109 (Pt. 11), 2619-2625).
The mice were generated by cloning full-length human PPARδ downstream of the human CYP1A1 promoter. Plasmids encoding human PPARδ were prepared by the following protocol. The coding sequences of PPARδ, were amplified using primers PRMG15 (5′-[…]-3′) and PR MG3 (5′-[…]-3′), respectively (XbaI-sites underlined, ATG start codon in bold). The PCR products were cleaved with XbaI and cloned in plasmid pUHD10-3 (M. Gossen, unpublished, Genbank accession number U89931) creating pMGD7 (PPARδ). The integrity of the inserts were confirmed by sequencing and cleaved out using BamHI and ligated into plasmid pAHIR1-β-gal (Campbell, 1996} cleaved with BglII, resulting in the plasmid pMGD72 (PPARδ). The proper orientations of the inserts were confirmed by restriction endonuclease analysis and sequencing. Transgenic mice were generated by microinjection of the expression unit (NotI fragment) of the plasmid pMGD72 into pro-nuclei of C57BL/J6×CBA F1 fertilized eggs. Mice were maintained under standard animal house conditions.
In a first study, indole-3-carbinole (I3C) introduced into the chow at a final concentration of 0.5% (w/w), for one week, was used to induce expression of PPARδ. The resulting translated protein was conformationally activated by the specific PPARδ ligand GW-501516 (2-Methyl-4-((4-methyl-2-(4-trifluoromethylphenyl)-1,3-thiazol-5-yl)-methylsulfanyl)phenoxy-acetic acid), added in powdered form to the chow at a concentration of 0.003% (w/w) for an additional 16 days. This activation mechanism is illustrated in FIG. 1. Thus, PPARδ can be transcriptionally activated and conformationally activated by concurrent feeding with I3C and GW-501516.

For a further series, the system named is human PPARδ. Particulars: mouse, in vivo. The protocol: FIG. 2(a) illustrates Western blot analyses of 10 μg of total protein extract of transgenic mice fed I3C or control diet in an experiment in which PPARδ expression was induced in mice harbouring CYP1A1-controlled PPARδ by oral administration of indole-3-carbinol (I3C) for seven days (top); and an experiment in which PPARδ was expressed by feeding of I3C and activated by additional administration of the specific PPARδ ligand GW-501516 (GW) for 25 days (bottom); FIG. 2(b) is a close-up photograph of the macroscopic phenotype of mice receiving both I3C and GW-501516 administration; FIG. 2(c) is a photograph of standard H&E histology stains prepared from abdominal skin of the animals shown in FIG. 2(a);
FIG. 3 illustrates experimental results from arising from the inducible expression of PPARδ in mouse epidermis. FIG. 3(a) Cis-regulatory elements in the rat CYP1A1 promoter used to drive inducible expression of human PPARδ. Upper panel: Map of the sebaceous-specific G/C-box element and the AHR-responsive DXE/XRE cluster in the cyp1A1 promoter as well as the human K5 promoter. Bottom panel: ClustalW alignment of promoters identified by a BLAST search using the 20 bp G/C element of the Cyp1A1 promoter. All of the genes shown were found in the top 10% percentile of all transcripts expressed in human sebaceous glands (GDS3215 at the NCBI GEO website www.ncbi.nlm.nih.gov/geo/). FIG. 3(b) illustrates immunohistochemistry using anti-PPARδ of mice transgenic for human PPARδ driven by the rat CYP1A promoter (PPARδ TG), as well as wild type mice. Magnification 200×; FIG. 3(c) illustrates immunohistochemistry of abdominal skin samples from PPARδ transgenic mice taken at the indicated times after initiation of PPARδ activation mediated by administration of the synthetic ligand GW501516 in the chow; FIG. 3(d) illustrates PPARδ immunohistochemistry 48 h after topical application of indole-3-carbinole (I3C) to the skin of PPARδ transgenic mice at 200× (left) and 400× (right) magnification; […]

The conditions of series [1]: cited from earlier work.
The subject of the next series is unmodified mice. Kind of series: Control experiments in unmodified mice. It is filed as in vivo, mouse. Particulars: GW-501516 administered to unmodified mice. How it is done:
The mice were prepared for the purposes of studies concerning a wide range of cancer phenotypes and liver fat accumulation.

Consider `OCc1c[nH]c2ccccc12` [I3C, indole-3-carbinole], for which the skin changes result in the series on PPARδ transgenic mice (prolonged chow with I3C 0.5% w/w, in the absence of PPARδ activation) is recorded as “caused no skin changes”. The skin phenotype result in the series on PPARδ transgenic mice (topical I3C alone to the skin) is “unable to elicit a phenotype”. In addition, in the series with human PPARδ, the “PPARδ expression in skin” value was “inducible”; the “PPARδ expression in skin and lymph nodes” value is given as “strong induction of PPARδ expression”.

As to `COC(=O)c1sccc1S(=O)(=O)Nc1ccc(Nc2ccccc2)cc1OC` [GSK 0660, methyl 3-({[2-(methoxy)-4-phenyl]amino}sulfonyl)-2-thiophenecarboxylate], in series [1], the in vivo bioavailability result is recorded as “lacks in vivo bioavailability”.

Regarding `Cc1cc(SCc2sc(-c3ccc(C(F)(F)F)cc3)nc2C)ccc1OCC(=O)O` [GW-501516, 2-Methyl-4-((4-methyl-2-(4-trifluoromethylphenyl)-1,3-thiazol-5-yl)-methylsulfanyl)phenoxy-acetic acid], the “skin phenotype (scaling, erythema, skin thickening)” value in the series with PPARδ transgenic mice (GW501516 alone, without I3C, as early as seven days after initiation) was “scaling, erythema formation, and skin thickening was notable in all PPARδ transgenic mice”. The “skin phenotype (scaling, skin thickening, inflammation)” value in the series on PPARδ transgenic mice (PPARδ induced by I3C feeding (0.5% w/w chow), activated by GW-501516 0.003% w/w in chow, after 25 days) is reported as “a dramatic skin phenotype was observed”. In addition, in the series on PPARδ transgenic mice (topical I3C plus additional topical GW501516 (0.3% each, once daily, 10 days)), the skin phenotype result is recorded as “effectively replicated”. Besides, the “PPARδ expression in the epidermis” value in the series on human PPARδ is reported as “strong expression of PPARδ in the epidermis”. In the series on unmodified mice, the psoriatic symptoms result was “no psoriatic symptoms were observed”.
